Results from patent US20250195510A1, “NOVEL METHODS” (priority 2022, published 2025).

Test system: inflammatory biomarkers in PBMCs
Assay: Post-hoc analysis of inflammatory biomarkers in PBMCs, phase 3 trial, schizophrenia with co-morbid depression
Format: in vivo, human
Settings: Day 28, 60 mg lumateperone tosylate once daily
Experimental: A randomized, double-blind, placebo-controlled, phase 3 clinical trial was conducted with 450 patients with schizophrenia, aged 18 to 60 years, who were experiencing an acute exacerbation of psychosis. Patients were included if they were experiencing an acute exacerbation of psychosis, defined as a total score on the Brief Psychiatric Rating Scale of […] or higher, with a score of 4 or higher on 2 or more positive symptoms, and onset of the acute episode within 4 weeks of screening. Patients were required to have a score of 4 or higher, indicating moderate to severe disease severity, on the Clinical Global Impression-Severity of Illness (CGI-S) at screening and baseline. Severity of illness was confirmed at baseline by a Positive and Negative Syndrome Scale (PANSS) total score of 70 or higher, indicating moderate to extreme symptoms of schizophrenia. A subgroup of these patients experienced co-morbid depression symptoms at baseline (defined as having a Calgary Depression Scale for Schizophrenia (CDSS) score greater than 6 at baseline). Full details of the clinical study were reported in Correll et al., JAMA Psychiatry, 77 (4): 349-358 (2020).
Patients were randomized 1:1:1 (150 patients in each arm) to receive, once daily for 28 days, cither 60 mg lumatepcrone tosylate (42 mg free base), 40 mg lumatepcrone tosylate (28 mg free base), or placebo.
Using blood samples stored from the study, a post-hoc analysis of inflammatory biomarkers in PBMCs from the patients with schizophrenia and co-morbid depression is conducted. […] Day 0 samples are available for 20 patients, while day 28 samples are available only for 18 patients. Mean baseline CDSS is 10.0, and mean baseline PANSS total score is 88.7 in the selected patients.
Samples were processed to isolate PBMC according to standard procedures using the Ficoll-Paque method. Statistical analysis was performed using the paired t-test, two-tailed. Samples were tested for C-reactive protein (CRP), serum amyloid A (SAA), soluble ICAM-1, soluble VCAM-1, IL-1β, TNF-α, IL-6, IL-10, IL-2, IL-8, IL-13, and IFN-γ. ICAM-1 and VCAM-1 are expressed by the vascular endothelium, macrophages, and lymphocytes. Upon cytokine stimulation, their concentrations greatly increase. ICAM-1 can be induced by IL-1ß and TNF. ICAM and VCAM proteins may also be involved in pathogen transit into CNS.
The results are shown in the table below (biomarker levels expressed in ng/ml; some values of N are less than the patient totals due to samples with levels of biomarker below the minimum for quantification): […]

CN1CCN2c3c(cccc31)[C@@H]1CN(CCCC(=O)c3ccc(F)cc3)CC[C@@H]12 [Lumateperone, 4-((6bR,10aS)-3-methyl-2,3,6b,9,10,10a-hexahydro-1H-pyrido[3′,4′: 4,5]pyrrolo[1,2,3-de]quinoxaline-8 (7H)-yl)-1-(4-fluorophenyl)-1-butanone]
IL-10 level in PBMC, Median (Day 0 0.07): 0.21 ng/mL
IL-10 level in PBMC, Average (Day 0 0.09): 2.14 ng/mL
IL-2 level in PBMC, Median (Day 0 0.17): 0.25 ng/mL
IL-2 level in PBMC, Average (Day 0 0.18): 0.37 ng/mL
IL-6 level in PBMC, Median (Day 0 0.18): 0.32 ng/mL
IL-6 level in PBMC, Average (Day 0 0.20): 0.55 ng/mL
TNF-α level in PBMC, Average (Day 0 0.27): 0.83 ng/mL
TNF-α level in PBMC, Median (Day 0 0.27): 0.43 ng/mL
IFN-γ level in PBMC, Median (Day 0 1.01): 0.71 ng/mL
IFN-γ level in PBMC, Average (Day 0 1.11): 0.86 ng/mL
IL-13 level in PBMC, Median (Day 0 1.11): 1.56 ng/mL
IL-13 level in PBMC, Average (Day 0 1.31): 2.38 ng/mL
IL-1β level in PBMC, Median (Day 0 1.65): 0.74 ng/mL
IL-1β level in PBMC, Average (Day 0 1.76): 1.01 ng/mL
IL-8 level in PBMC, Median (Day 0 36.3): 44.0 ng/mL
sVCAM-1 level in PBMC, Median (Day 0 60.1): 42.0 ng/mL
CRP level in PBMC, Median (Day 0 61.3): 38.0 ng/mL
IL-8 level in PBMC, Average (Day 0 74.5): 105.3 ng/mL
CRP level in PBMC, Average (Day 0 78.8): 50.5 ng/mL
sVCAM-1 level in PBMC, Average (Day 0 78.9): 49.1 ng/mL
sICAM-1 level in PBMC, Median (Day 0 136.9): 83.6 ng/mL
sICAM-1 level in PBMC, Average (Day 0 184.8): 119.6 ng/mL
SAA level in PBMC, Median (Day 0 233.6): 147.3 ng/mL
SAA level in PBMC, Average (Day 0 286.9): 157.9 ng/mL
